Paper PMC4491176, “Caenorhabditis elegans is a useful model for anthelmintic discovery” (Nature Communications, 2015)
Like-named read-outs stand apart in the source and are kept apart here.

What was measured:
[1] = molecular target: T1, Mouse complex II (Mus musculus, UniProt Q9CQA3+Q9CXV1+Q9CZB0); test: Cell-free Complex II functional assay, mouse liver mitochondria; assay type: biochemical, M. musculus
T1 construct: The livers from three 8–10-week-old C57Bl/6 female mice (Charles River) were removed; tissue Charles River (mice); host or cells: crude mitochondria from liver of C57Bl/6 female mice
T1 sequence (Q9CZB0 30-169): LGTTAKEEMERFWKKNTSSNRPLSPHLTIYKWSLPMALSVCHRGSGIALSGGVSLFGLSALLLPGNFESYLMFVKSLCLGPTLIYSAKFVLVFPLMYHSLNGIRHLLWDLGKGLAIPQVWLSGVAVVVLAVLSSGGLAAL
T1 sequence (Q9CQA3 31-282): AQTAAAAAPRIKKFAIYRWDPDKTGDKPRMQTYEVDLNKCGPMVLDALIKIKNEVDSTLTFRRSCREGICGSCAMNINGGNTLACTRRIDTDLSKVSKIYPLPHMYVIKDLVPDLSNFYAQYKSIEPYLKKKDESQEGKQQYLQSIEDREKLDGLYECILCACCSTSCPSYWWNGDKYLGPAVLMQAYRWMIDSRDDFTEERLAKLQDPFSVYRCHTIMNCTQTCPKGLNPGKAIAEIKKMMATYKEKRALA
T1 sequence (Q9CXV1 57-159): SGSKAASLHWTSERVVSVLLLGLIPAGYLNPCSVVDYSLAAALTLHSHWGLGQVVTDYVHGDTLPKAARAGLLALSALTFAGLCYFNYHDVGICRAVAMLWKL
T1 sequence (Q8K2B3 43-664 partner): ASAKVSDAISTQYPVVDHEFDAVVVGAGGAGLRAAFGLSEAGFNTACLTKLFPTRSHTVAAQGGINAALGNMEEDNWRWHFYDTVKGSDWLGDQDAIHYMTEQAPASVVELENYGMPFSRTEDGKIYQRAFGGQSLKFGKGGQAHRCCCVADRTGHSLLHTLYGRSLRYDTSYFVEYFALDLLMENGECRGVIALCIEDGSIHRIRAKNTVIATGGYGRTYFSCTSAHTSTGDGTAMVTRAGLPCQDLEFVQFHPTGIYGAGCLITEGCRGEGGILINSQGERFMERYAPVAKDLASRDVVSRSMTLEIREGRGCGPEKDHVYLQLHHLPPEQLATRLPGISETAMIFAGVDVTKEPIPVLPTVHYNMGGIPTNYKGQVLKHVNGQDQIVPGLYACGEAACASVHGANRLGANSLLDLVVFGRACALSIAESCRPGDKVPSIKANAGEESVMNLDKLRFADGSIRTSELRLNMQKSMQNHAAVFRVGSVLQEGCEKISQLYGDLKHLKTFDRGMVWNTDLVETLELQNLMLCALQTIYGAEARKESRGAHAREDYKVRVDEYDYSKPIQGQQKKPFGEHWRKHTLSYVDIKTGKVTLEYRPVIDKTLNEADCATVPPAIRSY
Method: The livers from three 8–10-week-old C57Bl/6 female mice (Charles River) were removed, collected in 1.5 ml microcentrifuge tubes, flash frozen in liquid nitrogen and stored at −80 °C until needed. Just before mitochondria isolation, the livers were weighed, placed into a 10-cm petri dish and 10 ml isolation buffer A was added per gram of liver tissue. The tissue was finely minced with a razor blade, transferred to a glass Dounce homogenizer and homogenized by 10 strokes on ice. The homogenate was centrifuged at 1,000g for 10 min at 4 °C. The supernatant was collected and centrifuged at 1,000g for 10 min at 4 °C. The supernatant was again collected and centrifuged at 16,000g for 10 min at 4 °C. The pellet was resuspended in 20 ml of isolation buffer B and centrifuged at 16,000g for 10 min at 4 °C. The pellet was resuspended in 20 ml of isolation buffer B, and 1 ml aliquots of the resuspension were distributed into 20 × 1.5 ml microcentrifuge tubes. The aliquoted resuspensions were centrifuged at 16,000g for 10 min at 4 °C. The supernatant was aspirated, the pellet was flash frozen in liquid nitrogen and stored frozen at −80 °C until needed. The mice used for experimentation were housed and used in accordance with ‘the use and care of experimental animals' guidelines. […]
Mitochondrial pellets were thawed on ice and resuspended in 300 μl of cold isolation buffer B. Using the BCA assay, the protein concentration of the mitochondria suspension was determined and was subsequently diluted to a concentration of 0.2 mg ml^−1 with cold isolation buffer B. Complex II enzymatic assays were carried out in 96-well flat bottom plates. […] Absorbance for each well was measured at 600 nm using a SpectraMax Plus 384-well Microplate Reader, combined with SoftmaxPro software at 30-s intervals over a 35-min time period. Absorbance versus time was plotted for each well and enzyme activity was calculated as the slope of the line defined by the points ranging from 4 to 10 min. Per cent activity was calculated by dividing the enzyme activity of the chemical-treated wells by that of the DMSO control wells. […]

[2] = system: C. elegans N2; test: 96-well liquid-based dose-response (in vivo LD100), wild-type worms; settings: lowest concentration with no viable animals in four of four wells, 6 days after 20 L1 worms deposited
Method: (§1) The 96-well liquid-based chemical screening assay was adapted from an established RNAi screening protocol. Briefly, saturated HB101 Escherichia coli culture was concentrated 2-fold using NGM (nematode growth media) containing 3 mg ml^−1 NaCl, 2.5 mg ml^−1 peptone, 5 μg ml^−1 cholesterol, 1 mM CaCl2, 1 mM MgSO4 and 25 mM KH2PO4. A total of 40 μl of NGM+HB101 was dispensed into each well of a 96-well plate, and chemicals were pinned into the wells using a pinning tool with a 300 nl slot volume (V&P Scientific). Approximately 20 synchronized first larval-stage (L1) worms, in 10 μl of M9 buffer (see ref. [24] for the recipe), were then added to each well. The synchronized L1s were obtained from an embryo preparation (see ref. [24] for the protocol) performed the previous day. The final concentration of dimethyl sulfoxide (DMSO) in the wells was 0.6% v/v. A dissection microscope was used to visualize the wells either 5 or 6 days post worm deposition and any obvious chemical-induced phenotypes were noted.
(§2) The 96-well liquid-based assay was also used for all follow-up dose-response experiments in this work. These experiments were carried out in quadruplicate, and the total number of worms in each well was counted 6 days after worm deposition.

[3] = molecular target: wild-type C. elegans complex II (Caenorhabditis elegans, UniProt O62215+P41956+Q09508+Q09545); test: biochemical; assay type: biochemical
wild-type C. elegans complex II, sequence (O62215 whole entry): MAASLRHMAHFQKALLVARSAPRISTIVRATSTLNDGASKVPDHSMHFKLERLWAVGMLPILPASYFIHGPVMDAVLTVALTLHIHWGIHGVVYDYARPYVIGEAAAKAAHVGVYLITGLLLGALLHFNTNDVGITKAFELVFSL
wild-type C. elegans complex II, sequence (Q09545 whole entry): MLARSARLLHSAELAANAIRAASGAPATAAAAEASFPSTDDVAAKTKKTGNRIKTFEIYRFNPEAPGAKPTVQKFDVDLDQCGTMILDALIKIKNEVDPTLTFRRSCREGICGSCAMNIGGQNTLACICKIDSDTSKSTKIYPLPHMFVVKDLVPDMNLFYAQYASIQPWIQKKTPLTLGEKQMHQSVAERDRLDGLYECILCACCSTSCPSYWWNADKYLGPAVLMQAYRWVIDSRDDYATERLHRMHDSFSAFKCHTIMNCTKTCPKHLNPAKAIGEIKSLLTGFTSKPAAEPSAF
wild-type C. elegans complex II, sequence (Q09508 32-646): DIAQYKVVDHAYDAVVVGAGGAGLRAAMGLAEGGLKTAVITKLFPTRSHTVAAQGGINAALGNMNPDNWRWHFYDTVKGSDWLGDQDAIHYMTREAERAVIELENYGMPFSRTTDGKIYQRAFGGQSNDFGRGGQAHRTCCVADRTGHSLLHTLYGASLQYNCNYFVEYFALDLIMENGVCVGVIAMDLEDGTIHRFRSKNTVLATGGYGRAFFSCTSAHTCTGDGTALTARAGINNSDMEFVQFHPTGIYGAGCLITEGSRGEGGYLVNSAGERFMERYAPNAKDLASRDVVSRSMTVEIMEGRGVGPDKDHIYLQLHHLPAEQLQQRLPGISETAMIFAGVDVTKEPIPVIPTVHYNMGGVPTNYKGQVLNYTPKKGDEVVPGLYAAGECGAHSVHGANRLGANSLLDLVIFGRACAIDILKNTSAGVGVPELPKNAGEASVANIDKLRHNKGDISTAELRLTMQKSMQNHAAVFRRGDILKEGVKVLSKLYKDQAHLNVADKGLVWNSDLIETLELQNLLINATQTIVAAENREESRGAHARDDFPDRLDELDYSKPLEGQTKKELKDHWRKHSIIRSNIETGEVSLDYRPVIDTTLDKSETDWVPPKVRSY
wild-type C. elegans complex II, sequence (P41956 whole entry): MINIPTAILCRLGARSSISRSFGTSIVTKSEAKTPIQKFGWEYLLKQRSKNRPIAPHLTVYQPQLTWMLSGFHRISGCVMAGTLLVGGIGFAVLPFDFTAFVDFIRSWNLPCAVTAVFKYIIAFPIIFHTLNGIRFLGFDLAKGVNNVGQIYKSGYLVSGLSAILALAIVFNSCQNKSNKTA

[4] = system: wact-11-family resistant C. elegans mutants (RP2674, RP2698 and others); test: 96-well liquid-based dose-response (in vivo LD100), wact-11-family resistant mutants; settings: for Resistance of wact-11-family resistant mutants to compound-induced lethality (in words): liquid dose-response of resistant mutants versus N2; for In vivo LD100: 6 days
Method: as §1, §2

[5] = system: complex II from the parasitic nematode Ascaris suum; set-up: method as in PMID 19724139, PMID 23333273; settings: cited from earlier work
[6] = molecular target: C. elegans complex II with SDHC-1(R74K) missense mutation (Caenorhabditis elegans, UniProt O62215+P41956+Q09508+Q09545, R74K); test: Cell-free Complex II functional assay, mitochondria from wact-11-resistant mutants RP2674 and RP2698; assay type: biochemical
C. elegans complex II with SDHC-1(R74K) missense mutation, sequence (O62215 whole entry): as the sequence (O62215 whole entry) above
C. elegans complex II with SDHC-1(R74K) missense mutation, sequence (P41956 whole entry R74K): as the sequence (P41956 whole entry) above, with R74K counted along it
C. elegans complex II with SDHC-1(R74K) missense mutation, sequence (Q09508 32-646): as the sequence (Q09508 32-646) above
C. elegans complex II with SDHC-1(R74K) missense mutation, sequence (Q09545 whole entry): as the sequence (Q09545 whole entry) above

[7] = system: three nematode species, zebrafish and HEK cells; test: Grouping by phylogenetic bioactivity profile (multi-organism screening pipeline); set-up: key: Group 1 molecules are lethal to only one or two of the three nematode species tested, but are non-lethal to zebrafish and HEK cells.; Group 2 molecules are lethal to all three nematode species, but are non-lethal to zebrafish and human cells.; Group 3 molecule are lethal to fish or HEK cells, regardless of their nematode bioactivity profile; settings: nematode selectivity and cross-species lethality group
From the text: To further characterize our 275 C. elegans-lethal molecules, we organized them into three separate groups based on their phylogenetic bioactivity profiles (Fig. 2a). Group 1 contains 102 molecules that are lethal to only one or two of the three nematode species tested, but are non-lethal to zebrafish and HEK cells. Group 2 contains 67 compounds that are lethal to all three nematode species, but are non-lethal to zebrafish and human cells. Group 3 contains the remaining 106 compounds that are lethal to fish or HEK cells, and have varied bioactivity in different nematode species. In particular, the 67 molecules in group 2 represent potentially ideal anthelmintic leads; they have activity across multiple nematode species, and appear not to affect vertebrates.

[8] = C. elegans, strain N2, SDHC residue change none, read-out: In vitro Complex II IC50
[9] = M. musculus, C57Bl/6 liver mitochondria, read-out: In vitro Complex II IC50
[10] = C. elegans strain RP2674 (SDHC R74K)
[11] = C. elegans strain RP2698 (SDHC R74K)
[12] = read-out: In vitro Complex II IC50, C. elegans, strain RP2674, SDHC R74K
[13] = read-out: In vitro Complex II IC50, C. elegans, strain RP2698, SDHC R74K

Q: For COc1[nH]c(=O)c(C(=O)[C@@H](C)C[C@H](C)[C@@H](Cl)CCl)c(O)c1OC [Atpenin A5], which IC50 [1] is on record?
A: 0.593 µM

Q: What about the “In vivo LD100” value [2] of the same compound?
A: >120 µM

Q: Which IC50 [3] does the source give for O=C(Nc1ccccc1)c1ccccc1I [Benodanil] here?
A: 0.186 µM

Q: And the “Resistance of wact-11-family resistant mutants to compound-induced lethality (in words)” value [4]?
A: resist the lethality

Q: And the “In vivo LD100” value [2]?
A: 120 µM

Q: Which IC50 [3] does the source give for O=C(Nc1ccccc1-c1ccc(Cl)cc1)c1cccnc1Cl [Boscalid] here?
A: 0.549 µM

Q: What about the “In vivo LD100” value [2] of the same compound?
A: >120 µM

Q: What does the source list for CC1=C(C(=O)Nc2ccccc2)SCCO1 [Carboxine]?
A: IC50 [3]: > 10 µM; In vivo LD100 [2]: >120 µM

Q: Which IC50 [3] does the source give for CC1=NS(=O)(=O)c2cc(Cl)ccc2N1 [Diazoxide] here?
A: > 10 µM

Q: And the “In vivo LD100” value [2]?
A: >120 µM

Q: Which results are given for Cc1occc1C(=O)Nc1ccccc1 [Fenfuran]?
A: IC50 [3]: 5.28 µM; In vivo LD100 [2]: >120 µM

Q: Which IC50 [3] does the source give for O=C(NCCc1ncc(C(F)(F)F)cc1Cl)c1ccccc1C(F)(F)F [Fluopyram] here?
A: 0.0018 µM

Q: And the “Less inhibiting than wact-11 f and wact-11 m” value ([3]; C. elegans N2 complex II IC50)?
A: ~2 fold

Q: What about the “Resistance of wact-11-family resistant mutants to compound-induced lethality (in words)” value [4] of the same compound?
A: resist the lethality

Q: What about the “In vivo LD100” value [2] of the same compound?
A: 0.469 µM

Q: With CC(C)Oc1cccc(NC(=O)c2ccccc2C(F)(F)F)c1 [Flutolanil] as the compound, how does the “Inhibition of Ascaris suum complex II in vitro (in words)” value [5] read?
A: inhibit

Q: What about the IC50 [3] of the same compound?
A: 0.311 µM

Q: What about the “In vivo LD100” value [2] of the same compound?
A: >120 µM

Q: With C/C=C/CC(C)C(=O)c1c(O)c(OC)c(OC)[nH]c1=O (stereo not shown) [Harz, harzianopyridone] as the compound, how does the IC50 [3, 8] read?
A: > 10 µM

Q: What about the “In vivo LD100” value [2] of the same compound?
A: >120 µM

Q: With O=C([O-])CC(=O)[O-].[Na+].[Na+] [Malonate, disodium malonate] as the compound, how does the IC50 [3, 8] read?
A: 4900 µM

Q: What about the “In vivo LD100” value [2] of the same compound?
A: >120 µM

Q: What about the IC50 ([6]; C. elegans, strain RP2674, SDHC R74K, read-out: In vitro Complex II IC50) of the same compound?
A: 4200 µM

Q: And the IC50 ([6]; C. elegans, strain RP2698, SDHC R74K, read-out: In vitro Complex II IC50)?
A: 4200 µM

Q: Which IC50 [3, 8] does the source give for O=C(CC(=O)C(F)(F)F)c1cccs1 [TTFA, thenoyltrifluoroacetone] here?
A: > 10 µM

Q: And the “In vivo LD100” value [2]?
A: >120 µM

Q: With Cc1nc(C(F)(F)F)c(C(=O)Nc2c(Br)cc(OC(F)(F)F)cc2Br)s1 [Thifluzamide] as the compound, how does the IC50 [3] read?
A: 3.82 µM

Q: What about the “In vivo LD100” value [2] of the same compound?
A: >120 µM

Q: Which results are given for O=C(NCCc1ccc(Cl)cc1)c1ccccc1C(F)(F)F [wact-11]?
A: Group # (Bioactivity Group #) [7]: 2; IC50 [3]: 0.0074 µM; IC50 [1, 9]: > 10 µM; In vivo LD100 [4, 10]: >120 µM; In vivo LD100 [4, 11]: >120 µM; Resistance of wact-11-family resistant mutants to compound-induced lethality (in words) [4]: at least some resistance; In vivo LD100 [2]: 7.5 µM; IC50 [6]: > 10 µM; IC50 [6, 12]: > 10 µM; IC50 [6, 13]: > 10 µM

Q: With CCc1ccc(OCCNC(=O)c2ccccc2I)cc1 [wact-12] as the compound, how does the “Group # (Bioactivity Group #)” value [7] read?
A: 2

Q: And the IC50 [3]?
A: 0.0057 µM

Q: And the IC50 [1, 9]?
A: > 10 µM

Q: What about the “In vivo LD100” value [4, 10] of the same compound?
A: >120 µM

Q: What about the “In vivo LD100” value [4, 11] of the same compound?
A: >120 µM

Q: What about the “In vivo LD100” value [2] of the same compound?
A: 7.5 µM

Q: What about the IC50 [6] of the same compound?
A: > 10 µM

Q: What about the IC50 [6, 12] of the same compound?
A: > 10 µM

Q: What about the IC50 [6, 13] of the same compound?
A: > 10 µM

Q: Which IC50 [3, 8] does the source give for Cc1ccc(SCCNC(=O)c2ccccc2I)cc1 [wact-12c] here?
A: 0.133 µM

Q: What about the “In vivo LD100” value [2] of the same compound?
A: >120 µM

Q: Which “Group # (Bioactivity Group #)” value [7] does the source give for CCCCCNC(=O)c1ccccc1SC [wact-127] here?
A: 2
